These results are taken from patent publication US20250114350A1, “INHIBITORS OF […] AS ANTIFUNGAL AGENTS” (Regents of the University of Minnesota, priority 2023, published 2025).

Values after ≈ are worked out from the molar mass of the structure shown. “Also recorded” adds a separate entry of the source. Where two headings read alike, the source gives them in different places.

Data set [1] has as its system Gfp-Ras1 localization in C. neoformans. As to the kind of experiment: Ras1 cellular localization by fluorescent microscopy. Particulars: sub-lethal concentrations; 0.78 μM (sub-inhibitory). Format: cell-based, Cryptococcus neoformans. The method, then:
(§1) FIG. 3. CnFTase is the in vivo target of 2f. (A) Ras cellular mislocalization, assessed by epifluorescent microscopy (1000×). Bar=10 μm. Top. […] Bottom. Control patterns of Ras localization with wild-type (left) and ram1Δ deletion (right) strains expressing mCherry-Ras1. […] A C. neoformans strain transformed with the galactose-regulated pGAL7-RAM1 over-expression construct was incubated with glucose (uninduced, bottom), and galactose (induced, top). Antifungal activity was assessed by the relative size of the zone of fungal growth inhibition surrounding sterile discs impregnated with 10 μL of 20 mM 2f dissolved in DMSO (bottom disk) or DMSO alone (top disc).
Compound 2f inhibited FTase activity in vivo. […] Both effects are consistent with CnFTase being the target of Compound 2f, as expected.
Microscopy. […] A drug-free control sample contained 1% DMSO. Ras1 localization in a ram1Δ mutant strain was determined in a similar manner: a ram1Δ mutant and wild-type strain, each expressing mCherry-Ras1 under a constitutive promoter (CBN121 and SKE17) were incubated overnight in YPD medium at 30° C., diluted to OD600 0.1 in YPD, then incubated for 24 hours at 37° C. All cells were visualized and imaged by fluorescent microscopy at 1000× magnification using a Zeiss Imager A1 microscope and Zeiss Axio-Cam MRM digital camera. […]

In data set [2] the test system is C. neoformans strain over-expressing CnFTase (pGAL7-RAM1). The data set is described as follows: Disc diffusion assay with galactose-inducible RAM1 over-expression. Type of data set: cell-based, Cryptococcus neoformans. Particulars: galactose induced; discs with 10 μL of 20 mM. The method, then: as §1
Molecular Biology. […] To induce C. neoformans mating, strains of opposite mating types were co-cultured on MS medium at 25° C. for seven days (Murashige, T, et al., Physiol Plantarum, 1962, 15, 473-497). A C. neoformans strain with a galactose-inducible RAM1 allele (CBN482) was similarly created with primers designed to create an overlap construct comprising the C. neoformans RAM1 5′ sequence-neomycin resistance cassette-GAL7 promoter-RAM1 coding sequence (FIG. 9) to precisely replace the RAM1 promoter with the GAL7 galactose inducible when introduced into the H99 genome by biolistic transformation.
Disc diffusion assay. […]

For another data set, the target named is mammalian FTase (Homo sapiens, UniProt P49354+P49356). As to the kind of experiment: Inhibition of mammalian FTase. Type of data set: biochemical.
mammalian FTase, sequence (P49356 whole entry, one chain of several): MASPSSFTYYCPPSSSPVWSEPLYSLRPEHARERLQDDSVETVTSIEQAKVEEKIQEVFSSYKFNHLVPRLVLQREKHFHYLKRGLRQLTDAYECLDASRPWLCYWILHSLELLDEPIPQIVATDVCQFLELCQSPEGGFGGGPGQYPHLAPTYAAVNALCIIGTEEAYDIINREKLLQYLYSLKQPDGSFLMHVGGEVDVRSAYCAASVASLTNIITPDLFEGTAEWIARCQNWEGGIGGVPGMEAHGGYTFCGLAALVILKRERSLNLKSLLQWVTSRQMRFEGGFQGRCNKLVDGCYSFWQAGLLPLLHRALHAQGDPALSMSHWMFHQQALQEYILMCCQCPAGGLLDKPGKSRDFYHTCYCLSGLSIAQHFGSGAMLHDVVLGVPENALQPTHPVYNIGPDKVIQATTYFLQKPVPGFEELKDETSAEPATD
A further data set relates to C. neoformans biofilms. As to the kind of experiment: Biofilm inhibition. Type of data set: cell-based, Cryptococcus neoformans.
The subject of data set [3] is J774A.1 macrophage-like murine cells. Particulars: mouse, 24 h.
Protocol: Macrophage cytotoxicity assays. […] 2 μL of the serially diluted compound were transferred to a 96-well plate containing 200 μL DMEM (100× dilution). J774A.1, a macrophage-like murine cell line, was incubated in DMEM (Dulbecco's Modified Eagle Medium, Sigma-Aldrich) to 70% confluency, harvested, washed in PBS, then transferred to black, clear-bottom 96-well plates (Greiner) at 10^5 cells/well. Plates were incubated overnight at 37° C. and 5% CO2. The macrophage medium covering the J774A.1 monolayer was replaced with 100 μL of DMEM containing the serially diluted inhibitors (50× dilution) and incubated for 24 h at 37° C. and 5% CO2. Macrophage viability was assessed at 24 h by the addition of 10% AlamarBlue and incubating for 3 h at 37° C. and 5% CO2 prior to fluorescence measurement (FLUORStar Optima plate reader). Assays were performed in duplicate.
Data set [4] deals with Schizosaccharomyces pombe. The data set is described as follows: S. pombe MIC assay (efflux effects). The note with it: for MIC: Schizosaccharomyces pombe.
Data set [5] deals with C. neoformans. The data set is described as follows: Minimum inhibitory concentration (MIC): disc diffusion and broth microdilution. For orientation: A growth-free zone around the sample is the usual read-out of agar diffusion tests.
Protocol: Antifungal activity was determined by measuring minimum inhibitory concentrations (MIC) of C. neoformans by two methods: a solid medium disc diffusion assay and broth microdilution assay.
Disc diffusion assay. Overnight cultures of C. neoformans (about 18 hours) were normalized to OD600 0.6, diluted 1/10, and 200 μL of each sample were spread onto either a YPD or YPGal (yeast extract-peptone medium with 3% galactose) plate using sterile glass beads. After drying, 10 μL of compound or solvent control (DMSO) was added to sterile 6 mm filter discs on each plate. Plates were incubated for 48 hours at 37° C.
Minimum inhibitory concentration (MIC) assays. C. neoformans: Overnight cultures (˜18 h) of C. neoformans strains incubated in YPD medium were diluted to 500 cells/ml in RPMI medium buffered with MOPS. Cells were aliquoted (200 μL/well) in black-wall, clear-bottom 96-wells plates (Greiner). Compound stock solutions in DMSO ranged from 9 μM to 20 mM, and added to 200 μL cell suspension aliquoted in 96-well plates. Final aqueous concentrations ranged from 200 μM to 0.09 μM, limiting DMSO to 1%. After 48-hr incubation at 37° C. or 30° C. for 48 h, 10% AlamarBlue (BioRad) was added. The end-point fluorescence intensity of reduced AlamarBlue was measured using a fluorescence plate reader (FLUORStar Optima plate reader) at the time point the indicator turned from blue to pink in healthy control cells.^51 Assays were performed in duplicate.
The target of a further data set is CnFTase (Cryptococcus neoformans, UniProt J9VSJ6+T2BPA1). The data set is described as follows: CnFTase steady-state kinetics fit to competitive/uncompetitive/mixed inhibition models. The note with it: for inhibition mode: with respect to FPP.
CnFTase, sequence (J9VSJ6 entry or part of it): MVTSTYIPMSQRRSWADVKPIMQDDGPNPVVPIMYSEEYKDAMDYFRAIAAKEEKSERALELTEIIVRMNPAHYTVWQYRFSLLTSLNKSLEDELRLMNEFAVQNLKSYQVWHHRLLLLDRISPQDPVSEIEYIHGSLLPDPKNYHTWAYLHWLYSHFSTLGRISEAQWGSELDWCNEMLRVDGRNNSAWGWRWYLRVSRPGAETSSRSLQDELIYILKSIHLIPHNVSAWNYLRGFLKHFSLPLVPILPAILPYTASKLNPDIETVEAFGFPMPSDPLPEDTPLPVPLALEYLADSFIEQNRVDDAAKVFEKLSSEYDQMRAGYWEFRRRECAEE
CnFTase, sequence (T2BPA1 entry or part of it): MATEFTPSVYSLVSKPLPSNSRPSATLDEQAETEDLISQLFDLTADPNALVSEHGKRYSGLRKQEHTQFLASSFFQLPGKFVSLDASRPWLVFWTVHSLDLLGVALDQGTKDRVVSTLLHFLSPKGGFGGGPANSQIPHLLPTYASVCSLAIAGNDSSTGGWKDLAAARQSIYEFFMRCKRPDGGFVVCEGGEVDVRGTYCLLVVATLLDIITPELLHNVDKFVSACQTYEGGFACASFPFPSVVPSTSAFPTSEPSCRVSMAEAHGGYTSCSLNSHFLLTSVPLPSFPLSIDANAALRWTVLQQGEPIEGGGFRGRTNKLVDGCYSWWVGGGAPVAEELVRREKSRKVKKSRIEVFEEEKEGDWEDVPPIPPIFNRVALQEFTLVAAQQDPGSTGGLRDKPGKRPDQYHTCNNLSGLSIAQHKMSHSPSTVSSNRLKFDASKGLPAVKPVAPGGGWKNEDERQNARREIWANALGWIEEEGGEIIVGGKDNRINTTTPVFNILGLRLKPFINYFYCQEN
For data set [6], the target named is CnFTase (C. neoformans farnesyl transferase, α/β heterodimer) (Cryptococcus neoformans, UniProt J9VSJ6+T2BPA1). The data set is described as follows: CnFTase activity assay: farnesylation of a dansylated (fluorescent) peptide, inhibitor concentration giving half-maximal enzyme rates at 1 μM FPP (1μMIC50). Particulars: read-out: CnFTase IC50 (1μMIC50), condition A: 20 nM CnFTase, dansyl-GCVVM 0.62 μM, Tris-HCl pH 7.5, ZnCl2 12.5 μM, 2.5% DMSO, room temperature, triplicate.
CnFTase (C. neoformans farnesyl transferase, α/β heterodimer), sequence (J9VSJ6 entry or part of it): as the sequence (J9VSJ6 entry or part of it) above
CnFTase (C. neoformans farnesyl transferase, α/β heterodimer), sequence (T2BPA1 entry or part of it): as the sequence (T2BPA1 entry or part of it) above
Protocol: CnFTase activity assay. […] Final CnFTase concentrations (from 5× or 10× stocks in 20 mM Tris-HCl pH7.5, 20 mM NaCl, 5 μM ZnCl2, 1 mM TCEP, 1 mg/mL BSA): A, 20 nM; B: 4.4, 6.7, 10 nM triplets. […] For experiments that included phosphate, pH 7.5 stock was added to the desired final concentration. […] Data for determining ^1μMIC50 values (condition A) was collected in triplicate. Initial rates, vo, were extracted by fitting a straight line to the initial to tmax seconds of the reaction progress curves, where tmax values were selected by inspection and entered into curator tables for automated analysis. 1μMIC50 were determined by fitting a single-site Langmuir ligand-binding isotherm to the dependence of vo on inhibitor concentration (2, see below). All other experiments (condition B) all other experiments (condition B) used three different CnFTase concentrations, collecting progress curves as a function of FPP, inhibitor, and phosphate concentrations. The resulting triplet of progress curves was used to extract vo values automatically by minimizing
If x is an inhibitor concentration, then IC50=Ka^−1. […] In general, baseline signals, σ, (α or β) can be constant, or linear functions of ligand concentration x

Data set [7] concerns C. neoformans FTase (CnFTase). As to the kind of experiment: CnFTase activity assay, farnesylation of a fluorescent (dansylated) peptide, 1μMIC50. Type of data set: biochemical, Cryptococcus neoformans. The method, then: The library of 23 compounds contained leads with 60- to 150-fold enhanced ^1μMIC50 values.
CnFTase activity assay. The farnesyl transferase activity was measured by measuring the time dependence of the fluorescence emission intensity increase due to farnesylation of a dansylated peptide (Cassidy, P. B, et al., Methods Enzymol, 1995, 250, 30-43). Measurements were taken at room temperature in a 96-well black polystyrene, half area, flat bottom, non-binding surface plate using a SpectraMax M5e plate reader (excitation wavelength, 340 nm; emission wavelength 525 nm; emission high-pass filter, 455 nm). […] Final CnFTase concentrations (from 5× or 10× stocks in 20 mM Tris-HCl pH7.5, 20 mM NaCl, 5 μM ZnCl2, 1 mM TCEP, 1 mg/mL BSA): A, 20 nM; B: 4.4, 6.7, 10 nM triplets. […] For experiments that included phosphate, pH 7.5 stock was added to the desired final concentration. Data was analyzed using Python scripts for the Biomolecular Computing (BMC) package, included in the Dryad electronic repository. Data for determining ^1μMIC50 values (condition A) was collected in triplicate. Initial rates, vo, were extracted by fitting a straight line to the initial to tmax seconds of the reaction progress curves, where tmax values were selected by inspection and entered into curator tables for automated analysis. 1μMIC50 were determined by fitting a single-site Langmuir ligand-binding isotherm to the dependence of vo on inhibitor concentration (2, see below). All other experiments (condition B) […] used three different CnFTase concentrations, collecting progress curves as a function of FPP, inhibitor, and phosphate concentrations. The resulting triplet of progress curves was used to extract vo values automatically by minimizing
Single-site binding isotherms. Signals, S, resulting from a binding reaction were fit to
where α and β are the baselines associated with the apo-protein and its ligand complex, respectively, and y fractional occupancy of the binding site
If x is an inhibitor concentration, then IC50=Ka^−1. For Michaelis-Menten analysis 2 is reduced to a standard form (Bahar, I.; Jernigan, R. L.; Dill, K. A. Protein Actions, principles & modeling. Garland Science: 2017) with S=vo (initial rates), α=0, β=Vmax (maximal velocity), and KM=Ka^−1 (substrate dissociation constant). In general, baseline signals, σ, (α or β) can be constant, or linear functions of ligand concentration x

For data set [8], the system named is C. neoformans FTase (CnFTase). The note with it: Hast et al. 2011; cited from earlier work.
Data set [9] has as its system C. neoformans. The note with it: cited from earlier work.

In the case of `CCCC[C@H]1CN(c2cccc(OC(F)(F)F)c2)C(=O)CN1Cc1cncn1Cc1ccc(Br)cc1` [Compound 2f, (S)-4-((1-(4-Bromobenzyl)-1H-imidazol-5-yl)methyl)-5-butyl-1-(3-(trifluoromethoxy)phenyl)piperazin-2-one], the Gfp-Ras1 localization entry in [1] is “remains in the cytoplasm; also recorded: does not localize to the plasma membrane”. Moreover, the “effect of CnFTase (Ram1) over-expression on antifungal activity” value in data set [2] was “negates 2f antifungal activity; also recorded: negated antifungal activity”. For the same compound, on mammalian FTase, the “IC50 on mammalian FTase, worse than on the fungal enzyme” value is given as “about 30 fold”. Besides, the biofilm inhibition entry in the data set with C. neoformans biofilms is “inhibits C. neoformans biofilms”. The MIC was 200 µM (≈ 113 µg/mL) in data set [3], 1.5 µM (≈ 0.848 µg/mL) in [4] (efflux-defective strain MJ-1682), 12.5 µM (≈ 7.07 µg/mL) in data set [4] (wild-type S. pombe) and 3 to 6 µM (≈ 1.7 to 3.39 µg/mL) against C. neoformans [5] (Cryptococcus neoformans). For the same compound, in data set [4] (MJ-1682 vs wild-type), the “MIC improvement in efflux-defective strain” value is given as “eight-fold”. In addition, the “improvement of competitive affinity in the H state” value at CnFTase (H state vs L state) is reported as about 100 fold. In addition, the “competitive affinity better than the uncompetitive value” on CnFTase (H state, 10 mM phosphate) is about 170 fold. In addition, the Ki on CnFTase (HKU, uncompetitive inhibitor affinity (dissociation constant), H state, 10 mM phosphate (H state)) stood at 500 nM; on CnFTase (LKU, uncompetitive inhibitor affinity (dissociation constant), L state, absence of phosphate (L state)), 750 nM; at CnFTase (read-out: HKC, competitive inhibitor affinity (dissociation constant), H state, 10 mM phosphate (H state)) it was 3 nM; at CnFTase (read-out: LKC, competitive inhibitor affinity (dissociation constant), L state, absence of phosphate (L state)) it was 320 nM. In addition, on CnFTase, the inhibition mode result was “mixture of two binding modes: uncompetitive like Compound 2q, and a competitive mode that displaces FPP”. For the same compound, the IC50 (commonly the concentration that gives 50% inhibition) in data set [6] amounted to 190 ± 60 nM.

Turning to `CCCC[C@H]1CN(c2cccc(OC(F)(F)F)c2)C(=O)CN1Cc1cncn1Cc1ccc(C#N)c(F)c1` [Compound 2q, (S)-4-((5-((2-Butyl-5-oxo-4-(3-(trifluoromethoxy)-phenyl)piperazin-1-yl)methyl)-1H-imidazol-1-yl)methyl)-2-fluorobenzonitrile], the “improvement of 1μMIC50 over L-778,123” value in data set [7] (1 μM FPP, relative to L-778,123) is recorded as 150 fold. Moreover, the “change of affinity relative to the comparator analogue (cf.)” value in data set [7] (pairwise comparison of analogues differing in one R group) is 9 fold. For the same compound, in the data set with C. neoformans [5] (C. neoformans), the antifungal activity result was “barely exhibited antifungal activity”. Besides, on CnFTase, the Ki came to 4 nM and the inhibition mode result is on record as “purely uncompetitive inhibitor”. In addition, at CnFTase (H state vs L state), the “improvement of uncompetitive binding affinity in the H state” value is listed as about 10%.

Take `N#Cc1ccc(Cn2cncc2CN2CCN(c3cccc(Cl)c3)C(=O)C2)cc1` [L-778,123]: the “inhibition of C. neoformans FTase (CnFTase)” value in data set [8] is “modest inhibition”. Besides, the antifungal activity entry in the data set on C. neoformans [9] (Hast et al. 2011) is on record as “did not have antifungal activity”.

As for `OC(Cn1cncn1)(Cn1cncn1)c1ccc(F)cc1F` [fluconazole], the MIC in the data set with C. neoformans [9] (C. neoformans, Bongomin et al. 2018) was at least 8 µg/mL.
